According to patent publication US9233979B2, “Compounds that are ERK inhibitors” (Merck Sharp & Dohme Corp., priority 2012, dated 2016):
pIC50: −log10 of the molar value.

Molecular target: phosphorylated active hERK2 enzyme (Homo sapiens (Human), UniProt P28482)
Assay: Active Human ERK2 (hERK2) Activity Assay (IMAP-FP)
Assay type: biochemical
Conditions: Table 6, 0.5 nM hERK2, 30 μM ATP, 10 point titration, read-out: AERK2 IC50
Summary of the method: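 IMAP fluorescence-polarization kinase assay: 0.5 nM activated hERK2 with 900 nM unlabeled plus 80 nM labeled peptide and 30 μM ATP, reacted 60 min. Quenched with IMAP beads in binding buffer with 24 mM NaCl; FP read after 60 min equilibration.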

Chain of phosphorylated active hERK2 enzyme (P28482 whole entry): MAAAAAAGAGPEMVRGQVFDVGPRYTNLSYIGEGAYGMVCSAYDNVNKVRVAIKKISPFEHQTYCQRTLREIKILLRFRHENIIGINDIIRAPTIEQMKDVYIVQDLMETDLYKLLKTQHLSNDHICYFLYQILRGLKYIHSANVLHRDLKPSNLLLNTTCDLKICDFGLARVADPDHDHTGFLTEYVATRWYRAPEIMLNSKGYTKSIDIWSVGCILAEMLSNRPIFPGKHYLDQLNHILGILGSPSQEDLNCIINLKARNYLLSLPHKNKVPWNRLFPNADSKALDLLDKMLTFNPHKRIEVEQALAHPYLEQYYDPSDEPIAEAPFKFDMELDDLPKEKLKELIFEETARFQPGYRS

pIC50	SMILES
8.74	C[C@@H](NC(=O)Nc1cc2[nH]nc(NCC3CC3)c2cn1)c1ccccc1 [Example 159, 1-{3-[(cyclopropyl-methyl)amino]-1H-pyrazolo[4,3-c]-pyridin-6-yl}-3-[(1R)-1-phenylethyl]urea]
6.55	C[C@@H](NC(=O)Nc1cc2[nH]nc(N(CC3CC3)CC3CC3)c2cn1)c1ccccc1 [Example 160, 1-{3-[bis(cyclopropyl-methyl)amino]-1H-pyrazolo[4,3-c]-pyridin-6-yl}-3-[(1R)-1-phenylethyl]urea]
8.64	C[C@@H](NC(=O)Nc1cc2[nH]nc(NC3CCOC3)c2cn1)c1ccccc1 (stereo partly drawn) [Example 161, 1-[(1R)-1-phenylethyl]-3-[3-(tetrahydrofuran-3-ylamino)-1H-pyrazolo[4,3-c]pyridin-6-yl]urea]
6.78	C[C@@H](NC(=O)Nc1cc2[nH]nc(NC3CCNCC3)c2cn1)c1ccccc1 [Example 162, 1-[(1R)-1-phenylethyl]-3-[3-(piperidin-4-ylamino)-1H-pyrazolo[4,3-c]-pyridin-6-yl]urea]
9.22	CC(C)C(=O)Nc1n[nH]c2cc(NC(=O)N[C@H](C)c3ccccc3)ncc12 [Example 163, 2-methyl-N-[6-({[(1R)-1-phenylethyl]-carbamoyl}amino)-1H-pypyrazolo[4,3-c]-pyridin-3-yl]propanamide]
7.52	C[C@@H](NC(=O)Nc1cc2[nH]nc(NC3CCCNC3)c2cn1)c1ccccc1 (stereo partly drawn) [Example 164, 1-[(1R)-1-phenylethyl]-3-[3-(piperidin-3-ylamino)-1H-pyrazolo[4,3-c]-pyridin-6-yl]urea]
7.30	C[C@@H](NC(=O)Nc1cc2[nH]nc(NCC3CCNCC3)c2cn1)c1ccccc1 [Example 165, 1-[(1R)-1-phenylethyl]-3-{3-[(piperidin-4-ylmethyl)amino]-1H-pyrazolo[4,3-c]pyridin-6-yl}urea]
8.77	C[C@@H](NC(=O)Nc1cc2[nH]nc(NCC3CCOCC3)c2cn1)c1ccccc1 [Example 166, 1-[(1R)-1-phenylethyl]-3-{3-[(tetrahydro-2H-pyran-4-yl-methyl)amino]-1H-pyrazolo[4,3-c]pyridin-6-yl}urea]
8.38	C[C@@H](NC(=O)Nc1cc2[nH]nc(NCC3CCCOC3)c2cn1)c1ccccc1 (stereo partly drawn) [Example 167, 1-[(1R)-1-phenylethyl]-3-{3-[(tetrahydro-2H-pyran-3-yl-methyl)amino]-1H-pyrazolo[4,3-c]pyridin-6-yl}urea]
7.50	C[C@@H](NC(=O)Nc1cc2[nH]nc(NC3CNC3)c2cn1)c1ccccc1 [Example 168, 1-[3-(azetidin-3-ylamino)-1H-pyrazolo[4,3-c]-pyridin-6-yl]-3-[(1R)-1-phenylethyl]urea]
7.30	C[C@@H](NC(=O)Nc1cc2[nH]nc(NC3CC(N(C)C)C3)c2cn1)c1ccccc1 (stereo partly drawn) [Example 169, 1-(3-{[3-(dimethylamino)-cyclobutyl]amino}-1H-pyrazolo[4,3-c]pyridin-6-yl)-3-[(1R)-1-phenylethyl]urea]
8.57	COC1CC(CNc2n[nH]c3cc(NC(=O)N[C@H](C)c4ccccc4)ncc23)C1 (stereo partly drawn) [Example 170, 1-(3-{[(3-methoxy-cyclobutyl)methyl]amino}-1H-pyrazolo[4,3-c]-pyridin-6-yl)-3-[(1R)-1-phenylethyl]urea]
8.39	CC(Nc1n[nH]c2cc(NC(=O)N[C@H](C)c3ccccc3)ncc12)C1CCOCC1 (stereo partly drawn) [Example 171, 1-[(1R)-1-phenylethyl]-3-(3-{[1-(tetrahydro-2H-pyran-4-yl)-ethyl]amino}-1H-pyrazolo[4,3-c]-pyridin-6-yl)urea]
7.51	C[C@@H](NC(=O)Nc1cc2[nH]nc(NC3CCC(N(C)C)CC3)c2cn1)c1ccccc1 (stereo partly drawn) [Example 172, 1-(3-{[4-(dimethylamino)-cyclohexyl]amino}-1H-pyrazolo[4,3-c]pyridin-6-yl)-3-[(1R)-1-phenylethyl]urea]
8.24	CC1=NOC(CNc2n[nH]c3cc(NC(=O)N[C@H](C)c4ccccc4)ncc23)C1 (stereo partly drawn) [Example 173, 1-(3-{[(3-methyl-4,5-dihydro-isoxazol-5-yl)-methyl]amino}-1H-pyrazolo[4,3-c]-pyridin-6-yl)-3-[(1R)-1-phenylethyl]urea]
8.36	C[C@@H](NC(=O)Nc1cc2[nH]nc(NC3CCCOC3)c2cn1)c1ccccc1 (stereo partly drawn) [Example 174, 1-[(1R)-1-phenylethyl]-3-[3-(tetrahydro-2H-pyran-3-ylamino)-1H-pyrazolo[4,3-c]pyridin-6-yl]urea]
7.47	CC(CN1CCOCC1)Nc1n[nH]c2cc(NC(=O)N[C@H](C)c3ccccc3)ncc12 (stereo partly drawn) [Example 175, 1-{3-[(1-methyl-2-morpholin-4-ylethyl)amino]-1H-pyrazolo[4,3-c]pyridin-6-yl}-3-[(1R)-1-phenylethyl]urea]
7.42	CC(CC1CCCCN1)Nc1n[nH]c2cc(NC(=O)N[C@H](C)c3ccccc3)ncc12 (stereo partly drawn) [Example 176, 1-{3-[(1-methyl-2-piperidin-2-ylethyl)amino]-1H-pyrazolo[4,3-c]pyridin-6-yl}-3-[(1R)-1-phenylethyl]urea]
7.92	C[C@@H](NC(=O)Nc1cc2[nH]nc(NCC3CC(C(C)(C)O)C3)c2cn1)c1ccccc1 (stereo partly drawn) [Example 177, 1-[3-({[3-(1-hydroxy-1-methyl-ethyl)cyclobutyl]-methyl}amino)-1H-pyrazolo[4,3-c]pyridin-6-yl]-3-[(1R)-1-phenylethyl]urea]
8.34	C[C@@H](NC(=O)Nc1cc2[nH]nc(NCc3ccccc3)c2cn1)c1ccccc1 [Example 178, 1-[3-(benzyl-amino)-1H-pyrazolo[4,3-c]-pyridin-6-yl]-3-1-[(1R)-1-phenylethyl]urea]
9.00	C[C@@H](NC(=O)Nc1cc2[nH]nc(NCc3ccncc3)c2cn1)c1ccccc1 [Example 179, 1-[(1R)-1-phenylethyl]-3-{3-[(pyridin-4-yl-methyl)amino]-1H-pyrazolo[4,3-c]-pyridin-6-yl}urea]
7.75	C=C(C)C1CC(CNc2n[nH]c3cc(NC(=O)N[C@H](C)c4ccccc4)ncc23)C1 (stereo partly drawn) [Example 180, 1-[3-({[3-(1-methylethenyl)-cyclobutyl]methyl}amino)-1H-pyrazolo[4,3-c]-pyridin-6-yl]-3-[(1R)-1-phenylethyl]urea]
8.37	C[C@@H](NC(=O)Nc1cc2[nH]nc(NC(=O)C3CCOCC3)c2cn1)c1ccccc1 [Example 181, N-[6-({[(1R)-1-phenylethyl]-carbamoyl}amino)-1H-pyrazolo[4,3-c]pyridin-3-yl]-tetrahydro-2H-pyran-4-carboxamide]
8.59	COC[C@@H](NC(=O)Nc1cc2[nH]nc(NCC3CC(C(C)(C)O)C3)c2cn1)c1ccccc1 (stereo partly drawn) [Example 182, 1-[3-({[3-(1-hydroxy-1-methylethyl)-cyclobutyl]methyl}amino)-1H-pyrazolo[4,3-c]pyridin-6-yl]-3-[(1S)-2-methoxy-1-phenylethyl]urea]
8.44	COC[C@@H](NC(=O)Nc1cc2[nH]nc(NCC3CC(C(C)(C)O)C3)c2cn1)c1ccccc1 (stereo partly drawn) [Example 183, 1-[3-({[3-(1-hydroxy-1-methylethyl)-cyclobutyl]methyl}amino)-1H-pyrazolo[4,3-c]pyridin-6-yl]-3-[(1S)-2-methoxy-1-phenylethyl]urea]
6.99	C[C@@H](NC(=O)Nc1cc2[nH]nc(NC3CCNC3)c2cn1)c1ccccc1 (stereo partly drawn) [Example 184, 1-[(1R)-1-phenylethyl]-3-[3-(pyrrolidin-3-ylamino)-1H-pyrazolo[4,3-c]pyridin-6-yl]urea]
